# In patent US20220168392A1 (priority 2019, published 2022):
# Square brackets hold non-standard residues; d marks the D form. * marks the point of attachment. 2Nal = N[C@@H](Cc1ccc2ccccc2c1)C(=O)O; Propionyl = CCC(=O)*; Sar = CNCC(=O)O
# How the values were obtained:
# Dog = assay: Maximum platelet elevation relative to baseline in normal healthy dogs, single escalating doses; type: in vivo; design: key to pharmacodynamics (PD) effect class of the dose (beneficial effects on survival): **: large pharmacodynamics (PD) effect; *: modest effect; details: for Dog Max Platelet Ratio: TOX6985; for maximum platelet elevation: canine
# Description: (§1) The ratio of the maximum platelet counts to the baseline platelet counts following single escalating doses of RWJ-800088 to mice, rats, dogs, rhesus monkeys and human healthy volunteers is shown in Table 5. The dose required to achieve a 2-3.5-fold elevation in humans is ˜100-fold lower compared to mice, ˜1,000-fold lower compared to rats and >10,000-fold lower compared to canines and NHPs. […] The species differences in potency has been described for other TPO mimetics in the literature and is attributed to differences in receptor affinity (Erickson-Miller C L, et al. Discovery and characterization of a selective, nonpeptidyl thrombopoietin receptor agonist. Exp. Hematol. 2005; 33:85-93). […] It is discovered that the dose of RWJ-800088 that produces a survival benefit and protects against vascular and organ injury is the dose that produces a 2-4 fold elevation of platelets (Table 6).
# healthy rhesus monkeys = assay: Maximum platelet count to baseline in healthy rhesus monkeys, escalating doses; type: in vivo, rhesus monkey; design: key to pharmacodynamics (PD) effect class of the dose (beneficial effects on survival): **: large pharmacodynamics (PD) effect; *: modest effect
# Method: A pilot PK/PD study was performed to evaluate the efficacy of RWJ-800088 in rhesus monkeys (Study No. 2016-2693—CiToxLAB North America). Rhesus monkeys (n=10/group, 5 male/5 female) were treated with vehicle or RWJ-800088 (a single dose of 30 mg/kg RWJ-800088) administered 24 hours post TBI gamma radiation (600 cGY). […] The ratio of the maximum platelet count to baseline following escalating doses of RWJ-800088 to healthy rhesus monkeys is as follows: 0.97±0.06× at 0.5 mg/kg, 1.08±0.15× at 2 mg/kg, 1.98±0.16× at 10 mg/kg, 2.9±0.03× at 20 mg/kg, and 3.83±0.11× at 40 mg/kg).
# as §1
# [1] = system: CD2F1 male mice exposed to supra-lethal TBI; assay: Survival and recovery from gastrointestinal injury at supra-lethal TBI; type: in vivo, mouse
# Method: Data are expressed as mean±Standard error of mean (SEM). Irradiated TPOm group compared with saline treated group, statistical significance by Student T test (p≤0.0001)
# Bacterial translocation was determined as bacterial load in liver and spleen tissue as a result of radiation injury to the intestines and was quantified by real-time polymerase chain reaction (PCR) using the 16S rRNA gene consensus sequence. Naïve jejunum serves as a positive control and naïve spleen and liver serve as negative controls/baseline values. Data are expressed as mean±Standard error of mean (SEM). Irradiated TPOm group compared with saline treated group, statistical significance by Student T test (p≤0.0001).
# Data are expressed as mean±Standard error of mean (SEM). Irradiated TPOm group compared with saline treated group, statistical significance by Student T test (p≤0.0001). Serum amaloyd A (SAA) and pro-calcitonin (PCT), sepsis markers, were both measured by ELISA.
# Jejunum samples were collected at days 1, 3, 7, 9 post-TBI. Representative sections were stained with H&E. There was a 100% increased survival in the RWJ-800088 treated mice compared to the saline treated animals (FIG. 9A—Kaplan Meier plot).
# Mouse = assay: Maximum platelet elevation relative to baseline in normal healthy mice, single escalating doses; type: in vivo; design: key to pharmacodynamics (PD) effect class of the dose (beneficial effects on survival): **: large pharmacodynamics (PD) effect; *: modest effect; details: for Mouse Max Platelet Ratio: 3DP03-Piedmont-01
# Description: as §1
# [2] = system: CD2F1 mice exposed to TBI (7 Gy); assay: Hematological recovery (peripheral blood counts) after non-lethal 7 Gy TBI; type: in vivo, mouse
# Method: Hematological recovery with RWJ-800088: To study the effects of prophylactic administration of RWJ-800088 on the recovery from hematopoietic injury following TBI, CD2F1 mice (n=10 per group) were treated with either a single dose of RWJ-800088 (0.3 mg/kg) or its vehicle (saline) 24 hours pre-TBI at a non-lethal dose of 7.0 Gy. This dose allows the animals to recover completely from the radiation-induced hematopoietic injury. In addition, a group of sham irradiated mice were given either the drug or saline. Blood collection was performed using a 23 G needle from the submandibular vein after anesthetizing the mice with isoflurane (Hospira Inc., Lake Forest, Ill.) at 2 hours and on days 1, 3, 7, 10, 14, 21, and 30 post-TBI. All mice were allowed to recover fully from anesthesia and monitored closely for any signs of a post-anesthesia reaction or bleeding at the collection site before returned to group housed cages. Approximately 20 μL of blood was collected in EDTA tubes and was continually rotated until CBC/differential analysis was completed using a HESKA Element HT™ 5 Analyzer system (HESKA Corporation, Loveland, Colo.). This CBC/differential analysis included white blood cells (WBC) counts, absolute neutrophil counts (Liem-Moolenaar, Clin Pharmacol Ther. 2008 October; 84(4):481-7), monocytes (MON), lymphocytes (LYM), red blood cells (RBC), hematocrits (HCT), and platelets (PLT) counts.
# [3] = day 7 post-TBI 7 Gy, 0.3 mg/kg 24 h pre-TBI
# [4] = day 10 post-TBI 7 Gy, 0.3 mg/kg 24 h pre-TBI
# [5] = day 14 post-TBI 7 Gy, 0.3 mg/kg 24 h pre-TBI
substance,measurement,setting,value
methoxypolyethyleneglycol20000-propionyl-L-Isoleucyl-L-Glutamyl-Glycyl-L-Prolyl-L-Threonyl-L-Leucyl-L-Arginyl-L-Glutaminyl-L-2-Naphthylalanyl-L-Leucyl-L-Alanyl-L-Alanyl-L-Arginyl-Sarcosyl-Ne-(methoxypolyethyleneglycol20000-propionyl-L-Isoleucyl-L-Glutamyl-Glycyl-L-Prolyl-L-Threonyl-L-Leucyl-L-Arginyl-L-Glutaminyl-L-2-Naphthylalanyl-L-Leucyl-L-Alanyl-L-Alanyl-L-Arginyl-Sarcosyl-)-Lysinamide ({mPEG 20 kDa-Propionyl}-IEGPTLRQ[2Nal]LAAR[Sar]K-NH2; also: dimer: second identical mPEG-propionyl chain on Lys Nε of C-terminal lysinamide) [RWJ-800088],Average of the Maximum Platelet Elevation/Baseline Platelet Counts,"Dog; Dog, dose 10000 μg/kg",1.7
same,pharmacodynamics (PD) effect class of the dose (beneficial effects on survival),"Dog; Dog, dose 10000 μg/kg",*
same,Dog Max Platelet Ratio,Dog; dose 300 μg/kg,1.0 ± 0.3
same,Dog Max Platelet Ratio,Dog; dose 3000 μg/kg,1.4 ± 0.5
same,Dog Max Platelet Ratio,Dog; dose 10000 μg/kg,1.7 ± 0.5
same,maximum platelet elevation,Dog,~7.7 fold
same,maximum platelet elevation,Dog; listed as TPOm,~1.7 fold
same,ratio of the maximum platelet count to baseline,healthy rhesus monkeys; 0.5 mg/kg,0.97±0.06 ×
same,ratio of the maximum platelet count to baseline,healthy rhesus monkeys; 2 mg/kg,1.08±0.15 ×
same,ratio of the maximum platelet count to baseline,healthy rhesus monkeys; 10 mg/kg,1.98±0.16 ×
same,ratio of the maximum platelet count to baseline,healthy rhesus monkeys; 20 mg/kg,2.9±0.03 ×
same,ratio of the maximum platelet count to baseline,healthy rhesus monkeys; 40 mg/kg,3.83±0.11 ×
same,NHP Max Platelet Ratio,"healthy rhesus monkeys; CiToxLAB North America Study No. 2016-2693, dose 30000 μg/kg",3.25
same,Average of the Maximum Platelet Elevation/Baseline Platelet Counts,"healthy rhesus monkeys; Monkey, dose 40000 μg/kg",3.83
same,pharmacodynamics (PD) effect class of the dose (beneficial effects on survival),"healthy rhesus monkeys; NHP, dose 30000 μg/kg",*
same,Dose for 2.0-4x Platelet Elevation in Healthy Subjects,healthy rhesus monkeys; Rhesus,≥30 mg/kg
same,NHP Max Platelet Ratio,"healthy rhesus monkeys; TOX9795/B201016-K013, dose 500 μg/kg",0.9 ± 0.1
same,NHP Max Platelet Ratio,"healthy rhesus monkeys; TOX9795/B201016-K013, dose 2000 μg/kg",1.1 ± 0.1
same,NHP Max Platelet Ratio,"healthy rhesus monkeys; TOX9795/B201016-K013, dose 10000 μg/kg",2.9 ± 0.0
same,NHP Max Platelet Ratio,"healthy rhesus monkeys; TOX9795/B201016-K013, dose 40000 μg/kg",3.8 ± 0.1
same,bacterial translocation to the liver and spleen,[1]; 1 mg/kg 24 hours prior to TBI (12.5 Gy per FIG. 10 legend),significantly reduced
same,number of viable crypts in jejunum,"[1]; 11 Gy, 1 mg/kg 24 h prior to TBI (FIG. 9C)",significant increase
same,increased survival compared to saline treated animals,"[1]; 11 Gy, 1 mg/kg 24 h prior to TBI, 8 mice/group/time point (FIG. 9A)",100%
same,"circulating sepsis biomarkers, serum amyloid A and procalcitonin","[1]; nine days post-TBI 11 Gy, 1 mg/kg 24 hours prior to TBI",significant reduction
same,Mouse Max Platelet Ratio,Mouse; dose 10 μg/kg,0.9 ± 0.6
same,Mouse Max Platelet Ratio,Mouse; dose 30 μg/kg,1.8 ± 0.4
same,Mouse Max Platelet Ratio,Mouse; dose 100 μg/kg,2.5 ± 1.1
same,Mouse Max Platelet Ratio,Mouse; dose 300 μg/kg,3.9 ± 0.9
same,Mouse Max Platelet Ratio,Mouse; dose 1000 μg/kg,4.3 ± 0.5
same,Mouse Max Platelet Ratio,Mouse; dose 3000 μg/kg,3.4 ± 1
same,Dose for 2.0-4x Platelet Elevation in Healthy Subjects,Mouse; Mice,≥0.1 mg/kg
same,pharmacodynamics (PD) effect class of the dose (beneficial effects on survival),"Mouse; Mouse, dose 100 μg/kg",**
same,Average of the Maximum Platelet Elevation/Baseline Platelet Counts,"Mouse; Mouse, dose 300 μg/kg",3.9
same,pharmacodynamics (PD) effect class of the dose (beneficial effects on survival),"Mouse; Mouse, dose 300 μg/kg",**
same,pharmacodynamics (PD) effect class of the dose (beneficial effects on survival),"Mouse; Mouse, dose 1000 μg/kg",**
same,pharmacodynamics (PD) effect class of the dose (beneficial effects on survival),"Mouse; Mouse, dose 3000 μg/kg",**
same,Platelet Elevation in Non-Irradiated Animals (fold increase over baseline),Mouse; TPOm dose 0.1 mg/kg,2.50 fold increase over baseline
same,Platelet Elevation in Non-Irradiated Animals (fold increase over baseline),Mouse; TPOm dose 0.3 mg/kg,3.90 fold increase over baseline
same,Platelet Elevation in Non-Irradiated Animals (fold increase over baseline),Mouse; TPOm dose 1 mg/kg,4.30 fold increase over baseline
same,Platelet Elevation in Non-Irradiated Animals (fold increase over baseline),"Mouse; TPOm dose 2 mg/kg, imputed as mean of the 1 mg/kg and 3 mg/kg cohorts",3.85 fold increase over baseline
same,Platelet Elevation in Non-Irradiated Animals (fold increase over baseline),Mouse; TPOm dose 3 mg/kg,3.40 fold increase over baseline
same,recovery from cytopenia of all blood cell counts vs vehicle control,"[2]; 7 Gy, 0.3 mg/kg 24 h pre-TBI",significant
same,Neutrophil (NEU) counts,[2]; [3],0.31±0.026 cells/μL
same,white blood cell (WBC) counts,[2]; [3],0.5±0.037 cells/μL
same,lymphocyte (LYM) vs vehicle-treated group,[2]; day 10 post-TBI 7 Gy,significant (p<0.05) increases
same,platelet (PLT) count,[2]; [4],1565×10^3±148×10^3 cells/μL
same,white blood cell (WBC) counts,[2]; [4],1.39±0.1756 cells/μL
same,RBC counts of irradiated vehicle-treated group compared with irradiated RWJ-800088 treated group,[2]; day 14 post-TBI 7 Gy,same effect was also observed
same,Neutrophil (NEU) counts,[2]; [5],1.54±0.21 cells/μL
same,white blood cell (WBC) counts,[2]; [5],2.43±0.32 cells/μL
same,platelet (PLT) count,"[2]; day 14 post-TBI 7 Gy, 0.3 mg/kg 24 h pre-TBI, irradiated RWJ-800088 treated group",1070×10^3±156×10^3 cells/μL
same,% HCT of irradiated vehicle-treated group compared with irradiated RWJ-800088 treated group,"[2]; day 14 post-TBI 7 Gy, p<0.001",significantly lower
same,monocyte (MON) counts vs irradiated vehicle-treated group,"[2]; days 7, 10 and 14 post-TBI 7 Gy, p<0.001",markedly higher
same,PLT in non-irradiated groups vs saline,"[2]; non-irradiated, days 7 and 10 post-TBI (days 8 and 11 after administration), 0.3 mg/kg",significant (p<0.05) increase in PLT
